Source: US20240376094A2, “SELECTIVE BCL-XL PROTAC COMPOUNDS AND METHODS OF USE” (Les Laboratoires Servier, priority 2021, published 2024)

Tests used:
Type in all cases: cell-based
[1] = test system: EBC-1 lung cancer cell line; test: EBC-1 cell proliferation, CellTiter-Glo assay; details: Homo sapiens, 120 h; Ebc-1 cell viability, CTG assay, 5 days of treatment; read-out: CTG 5 day Ebc1 GI50
Summary of the method: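 EBC-1 cells seeded at 1000 per well overnight, then exposed to 10-point dilutions (0.508 nM–10 μM final) for 5 days at 37 °C, in triplicate. ATP luminescence by CellTiter-Glo, normalised to untreated wells; GI50 from four-parameter logistic fit, runs valid only with at least one doubling.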

Bcl-xL = target: T1, Bcl-xL (Homo sapiens, UniProt Q07817); test: HCT116 Bcl-xL degradation, capillary-based immunoassay (WES); details: for DC50: HCT116, 24 h, 9-point serial dilution; for remaining activity at 0.01 µM / remaining activity at 0.1 µM: HCT-116, 24 h, % of untreated cells; for remaining activity at 0.01 µM: HCT116, 10 nM; for remaining activity at 0.1 µM: HCT116, 100 nM
T1 construct: Measured levels of Bcl-xL protein of HCT116 cells treated with the tested compounds; host or cells: HCT116
T1 sequence (Q07817 whole entry): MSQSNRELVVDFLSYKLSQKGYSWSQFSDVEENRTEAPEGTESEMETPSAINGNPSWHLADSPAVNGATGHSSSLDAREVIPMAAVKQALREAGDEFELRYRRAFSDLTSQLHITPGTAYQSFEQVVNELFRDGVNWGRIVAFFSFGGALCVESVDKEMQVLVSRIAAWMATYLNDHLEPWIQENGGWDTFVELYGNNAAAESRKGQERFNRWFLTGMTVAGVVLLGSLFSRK
Summary of the method: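 HCT116 cells treated 24 h with compound at 10/100 nM and/or 9-point dilution (quadruplicates), then lysed. Bcl-xL measured by capillary WES immunoassay, normalized to cofilin and expressed as % of untreated cells. DC50 from four-parameter curve fit.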

MOLT-4 cells = test: MOLT-4 cell viability, MTT assay; details: Homo sapiens, MOLT-4, 48 h
Summary of the method: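 MOLT-4 cells in RPMI 1640 with 10% FBS were exposed to compounds for 48 h at 9 concentrations (3.16-fold dilutions, triplicates). After 4 h with MTT and overnight SDS/HCl solubilisation, absorbance was read at 540 nm. IC50 came from four-parameter fits versus control, as the mean of ≥2 independent experiments.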

HiBiT-tagged BCL-xL = target: T2, HiBiT-tagged BCL-xL (Homo sapiens, UniProt Q07817); test: NCI-H1650 BCL-xL protein levels, Nano-Glo HiBiT Lytic Detection; details: NCI-H1650 expressing HiBiT-tagged BCL-xL, overnight incubation, read-out: Bcl-xl HIBIT NCIH1650 DC50
T2 construct: expressed in transfected cells; host or cells: NCI-H1650 (ATCC No. CRL-5883), engineered HiBiT cell line
T2 sequence (Q07817 whole entry): as above
Summary of the method: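 NCI-H1650 cells expressing HiBiT-tagged BCL-xL (5000/well) were treated overnight at 37° C with 10 concentrations, final 0.508 nM-10 μM, in triplicate. Remaining BCL-xL measured by Nano-Glo HiBiT lytic luminescence, normalized to untreated cells; 50% values by four-parameter logistic fit.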

SMILES	GI50 [1]	DC50 (Bcl-xL)	IC50 (MOLT-4 cells)	DC50 (HiBiT-tagged BCL-xL)	remaining activity at 0.01 µM (Bcl-xL)	remaining activity at 0.1 µM (Bcl-xL)
Cc1cc(N(CCCCCn2cc(CCCCCCCCC(=O)N[C@H](C(=O)N3C[C@H](O)C[C@H]3C(=O)NCc3ccc(-c4scnc4C)cc3)C(C)(C)C)nn2)c2ccc(-c3cnn(CC45CC6(C)CC(C)(C4)CC(OCCN(C)C)(C6)C5)c3C)c(C(=O)O)n2)nnc1Nc1nc2ccccc2s1 [Example 152, 6-[[6-(1,3-benzothiazol-2-ylamino)-5-methyl-pyridazin-3-yl]-[5-[4-[9-[[(1S)-1-[(2S,4R)-4-hydroxy-2-[[4-(4-methylthiazol-5-yl)phenyl]methylcarbamoyl]pyrrolidine-1-carbonyl]-2,2-dimethyl-propyl]amino]-9-oxo-nonyl]triazol-1-yl]pentyl]amino]-3-[1-[[3-[2-(dimethylamino)ethoxy]-5,7-dimethyl-1-adamantyl]methyl]-5-methyl-pyrazol-4-yl]pyridine-2-carboxylic acid]	121 nM	11.4 nM	82.1 nM	> 1670 nM		
Cc1ncsc1-c1ccc([C@H](C)NC(=O)[C@@H]2C[C@@H](O)CN2C(=O)[C@@H](NC(=O)CCCCCCCCCCCCCN(C)CCOC23CC4(C)CC(C)(CC(Cn5ncc(-c6ccc(N7CCCc8c7nnc(Nc7nc9ccccc9s7)c8C)nc6C(=O)O)c5C)(C4)C2)C3)C(C)(C)C)cc1 [Example 4, 6-[3-(1,3-benzothiazol-2-ylamino)-4-methyl-6,7-dihydro-5H-pyrido[2,3-c]pyridazin-8-yl]-3-[1-[[3-[2-[[14-[[(1S)-1-[(2S,4R)-4-hydroxy-2-[[(1S)-1-[4-(4-methylthiazol-5-yl)phenyl]ethyl]carbamoyl]pyrrolidine-1-carbonyl]-2,2-dimethyl-propyl]amino]-14-oxo-tetradecyl]-methyl-amino]ethoxy]-5,7-dimethyl-1-adamantyl]methyl]-5-methyl-pyrazol-4-yl]pyridine-2-carboxylic acid]	1 nM	0.279 nM	0.85 nM	0.4 nM	33%	14%
Cc1ncsc1-c1ccc(CNC(=O)[C@@H]2C[C@@H](O)CN2C(=O)[C@@H](NC(=O)C2(F)CC2)C(C)(C)C)c(OCCCCCCN(C)CCOC23CC4(C)CC(C)(CC(Cn5ncc(-c6ccc(N7CCCc8c7nnc(Nc7nc9ccccc9s7)c8C)nc6C(=O)O)c5C)(C4)C2)C3)c1 [Example 137, 6-[3-(1,3-benzothiazol-2-ylamino)-4-methyl-6,7-dihydro-5H-pyrido[2,3-c]pyridazin-8-yl]-3-[1-[[3-[2-[6-[2-[[[(2S,4R)-1-[(2S)-2-[(1-fluorocyclopropanecarbonyl)amino]-3,3-dimethyl-butanoyl]-4-hydroxy-pyrrolidine-2-carbonyl]amino]methyl]-5-(4-methylthiazol-5-yl)phenoxy]hexyl-methyl-amino]ethoxy]-5,7-dimethyl-1-adamantyl]methyl]-5-methyl-pyrazol-4-yl]pyridine-2-carboxylic acid]	4 nM	> 316 nM	16.2 nM	> 1670 nM		
Cc1ncsc1-c1ccc([C@H](C)NC(=O)C2C[C@@H](O)CN2C(=O)C(NC(=O)CCCCCC(=O)N2CCN(CC#Cc3ccc(OCCCc4sc(N5CCCc6c5nnc(Nc5nc7ccccc7s5)c6C)nc4C(=O)O)c(F)c3)CC2)C(C)(C)C)cc1 (stereo in doubt) [Example 17, 2-[3-(1,3-benzothiazol-2-ylamino)-4-methyl-6,7-dihydro-5H-pyrido[2,3-c]pyridazin-8-yl]-5-[3-[2-fluoro-4-[3-[4-[7-[[(1S)-1-[(2S,4R)-4-hydroxy-2-[[(1S)-1-[4-(4-methylthiazol-5-yl)phenyl]ethyl]carbamoyl]pyrrolidine-1-carbonyl]-2,2-dimethyl-propyl]amino]-7-oxo-heptanoyl]piperazin-1-yl]prop-1-ynyl]phenoxy]propyl] thiazole-4-carboxylic acid]	31 nM	0.488 nM	3.84 nM	> 1670 nM	32%	9%
